# What was measured:
# [1] = tested on: galium (catchweed bedstraw, Galium aparine); experiment: Test C preemergence; type: in vivo; conditions: Galium, pre-emergence, 336 h, scale 0 to 100, read-out: Plant response rating, Galium
# Method in brief: (§1)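 Greenhouse test; preemergence to seeds in loam/sand soil, or postemergence spray to 2-18 cm, 1- to 4-leaf plants in peat/vermiculite medium; compound in non-phytotoxic solvent plus surfactant. Visual rating vs controls at 13-15 d, 0 = no effect, 100 = complete control.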
# [2] = tested on: pigweed (Amaranthus retroflexus); experiment: Test C preemergence; type: in vivo; conditions: Amaranthus retroflexus, pre-emergence, 336 h, scale 0 to 100, read-out: Plant response rating, Pigweed
# Method in brief: as §1
# [3] = tested on: morningglory (Ipomoea coccinea); experiment: Test C preemergence; type: in vivo; conditions: Ipomoea, pre-emergence, 336 h, scale 0 to 100, read-out: Plant response rating, Morningglory
# Method in brief: as §1
# [4] = tested on: ragweed (common ragweed, Ambrosia elatior); experiment: Test C preemergence; type: in vivo; conditions: Ambrosia artemisiifolia, pre-emergence, 336 h, scale 0 to 100, read-out: Plant response rating, Ragweed
# Method in brief: as §1
# [5] = tested on: lambsquarters (Chenopodium album); experiment: Test C preemergence; type: in vivo; conditions: Chenopodium album, pre-emergence, 336 h, scale 0 to 100, read-out: Plant response rating, Lambsquarters
# Method in brief: as §1
# soybean (Glycine max) = experiment: Test C preemergence; type: in vivo; conditions: Glycine max, pre-emergence, scale 0 to 100, read-out: Plant response rating, Soybean
# Method in brief: as §1
# [6] = tested on: johnsongrass (Sorghum halepense); experiment: Test C preemergence; type: in vivo; conditions: Sorghum halepense, pre-emergence, 336 h, scale 0 to 100, read-out: Plant response rating, Johnsongrass
# Method in brief: as §1
# corn (Zea mays) = experiment: Test C preemergence; type: in vivo; conditions: Zea mays, pre-emergence, 336 h, scale 0 to 100
# Method in brief: as §1
# [7] = tested on: Italian ryegrass (Lolium multiflorum); experiment: Test C preemergence; type: in vivo; conditions: Lolium multiflorum, pre-emergence, 336 h, scale 0 to 100, read-out: Plant response rating, Ryegrass, Italian
# Method in brief: as §1
# [8] = tested on: yellow nutsedge (Cyperus esculentus); experiment: Test C preemergence; type: in vivo; conditions: Cyperus, pre-emergence, 336 h, scale 0 to 100, read-out: Plant response rating, Nutsedge, Yellow
# Method in brief: as §1
# [9] = tested on: barnyardgrass (Echinochloa crus-galli); experiment: Test C preemergence; type: in vivo; conditions: Echinochloa crus-galli, pre-emergence, read-out: Plant response rating, Barnyardgrass
# Method in brief: as §1
# [10] = tested on: velvetleaf (Abutilon theophrasti); experiment: Test C preemergence; type: in vivo; conditions: Abutilon theophrasti, pre-emergence, scale 0 to 100, read-out: Plant response rating, Velvetleaf
# Method in brief: as §1
# [11] = tested on: blackgrass (Alopecurus myosuroides); experiment: Test C preemergence; type: in vivo; conditions: Alopecurus myosuroides, pre-emergence, 336 h, scale 0 to 100, read-out: Plant response rating, Blackgrass
# Method in brief: as §1
# [12] = tested on: waterhemp (common waterhemp, Amaranthus rudis); experiment: Test C preemergence; type: in vivo; conditions: Amaranthus tuberculatus, pre-emergence, scale 0 to 100, read-out: Plant response rating, Waterhemp
# Method in brief: as §1
# [13] = tested on: giant foxtail (Setaria faberii); experiment: Test E preemergence; type: in vivo; conditions: scale 0 to 100
# Method in brief: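 Test chemicals, formulated in a non-phytotoxic solvent with surfactant, are applied to silt loam soil after sowing or sprayed over young plants (1–4 leaves) in potting medium. Plants are then kept in a greenhouse for 14 to 21 days and scored 0–100 for control.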
smiles,measurement,setting,value
"N#Cc1cccc(Oc2ncc(Cl)cn2)c1Oc1ncc(C(F)(F)F)cn1 [Compound 38, 3-[(5-chloro-2-pyrimidinyl)oxy]-2-[[5-(trifluoromethyl)-2-pyrimidinyl]oxy]-benzonitrile]",melting point,,101 to 103 °C
same,pest or weed control at 31 g/ha,"[1]; 31 g ai/ha, preemergence",90%
same,pest or weed control at 62 g/ha,"[1]; 62 g ai/ha, preemergence",100%
same,pest or weed control at 125 g/ha,"[1]; 125 g ai/ha, preemergence",100%
same,pest or weed control at 16 g/ha,"[1]; Preemergence, 16 g ai/ha",80%
same,pest or weed control at 31 g/ha,"[2]; 31 g ai/ha, preemergence",100%
same,pest or weed control at 62 g/ha,"[2]; 62 g ai/ha, preemergence",100%
same,pest or weed control at 125 g/ha,"[2]; 125 g ai/ha, preemergence",100%
same,pest or weed control at 16 g/ha,"[2]; Preemergence, 16 g ai/ha",100%
same,pest or weed control at 31 g/ha,"[3]; 31 g ai/ha, preemergence",80%
same,pest or weed control at 62 g/ha,"[3]; 62 g ai/ha, preemergence",95%
same,pest or weed control at 125 g/ha,"[3]; 125 g ai/ha, preemergence",100%
same,pest or weed control at 16 g/ha,"[3]; Preemergence, 16 g ai/ha",40%
same,pest or weed control at 31 g/ha,"[4]; 31 g ai/ha, preemergence",25%
same,pest or weed control at 62 g/ha,"[4]; 62 g ai/ha, preemergence",75%
same,pest or weed control at 125 g/ha,"[4]; 125 g ai/ha, preemergence",90%
same,pest or weed control at 16 g/ha,"[4]; Preemergence, 16 g ai/ha",0%
same,pest or weed control at 31 g/ha,"[5]; 31 g ai/ha, preemergence",90%
same,pest or weed control at 62 g/ha,"[5]; 62 g ai/ha, preemergence",95%
same,pest or weed control at 125 g/ha,"[5]; 125 g ai/ha, preemergence",98%
same,pest or weed control at 16 g/ha,"[5]; Preemergence, 16 g ai/ha",85%
same,plant injury at 31 g/ha,"soybean (Glycine max); 31 g ai/ha, preemergence",55%
same,plant injury at 62 g/ha,"soybean (Glycine max); 62 g ai/ha, preemergence",60%
same,plant injury at 125 g/ha,"soybean (Glycine max); 125 g ai/ha, preemergence",90%
same,plant injury at 16 g/ha,"soybean (Glycine max); Preemergence, 16 g ai/ha",20%
same,pest or weed control at 31 g/ha,"[6]; 31 g ai/ha, preemergence",85%
same,pest or weed control at 62 g/ha,"[6]; 62 g ai/ha, preemergence",85%
same,pest or weed control at 125 g/ha,"[6]; 125 g ai/ha, preemergence",100%
same,pest or weed control at 16 g/ha,"[6]; Preemergence, 16 g ai/ha",45%
same,"Corn plant response rating (crop injury, 0 = no effect, 100 = complete kill) at 31 g/ha","corn (Zea mays); 31 g ai/ha, preemergence",30%
same,"Corn plant response rating (crop injury, 0 = no effect, 100 = complete kill) at 62 g/ha","corn (Zea mays); 62 g ai/ha, preemergence",45%
same,"Corn plant response rating (crop injury, 0 = no effect, 100 = complete kill) at 125 g/ha","corn (Zea mays); 125 g ai/ha, preemergence",65%
same,"Corn plant response rating (crop injury, 0 = no effect, 100 = complete kill) at 16 g/ha","corn (Zea mays); Preemergence, 16 g ai/ha",10%
same,pest or weed control at 31 g/ha,"[7]; 31 g ai/ha, preemergence",10%
same,pest or weed control at 62 g/ha,"[7]; 62 g ai/ha, preemergence",60%
same,pest or weed control at 125 g/ha,"[7]; 125 g ai/ha, preemergence",90%
same,pest or weed control at 16 g/ha,"[7]; Preemergence, 16 g ai/ha",0%
same,pest or weed control at 31 g/ha,"[8]; 31 g ai/ha, preemergence",20%
same,pest or weed control at 62 g/ha,"[8]; 62 g ai/ha, preemergence",70%
same,pest or weed control at 125 g/ha,"[8]; 125 g ai/ha, preemergence",85%
same,pest or weed control at 16 g/ha,"[8]; Preemergence, 16 g ai/ha",0%
same,pest or weed control at 31 g/ha,"[9]; 31 g ai/ha, preemergence, scale 0 to 100",85%
same,pest or weed control at 62 g/ha,"[9]; 62 g ai/ha, preemergence, scale 0 to 100",100%
same,pest or weed control at 125 g/ha,"[9]; 125 g ai/ha, preemergence, scale 0 to 100",100%
same,pest or weed control at 16 g/ha,"[9]; Preemergence, 16 g ai/ha, scale 0 to 100 (0 no effect, 100 complete control)",50%
same,pest or weed control at 31 g/ha,"[10]; 31 g ai/ha, preemergence",90%
same,pest or weed control at 62 g/ha,"[10]; 62 g ai/ha, preemergence",98%
same,pest or weed control at 125 g/ha,"[10]; 125 g ai/ha, preemergence",100%
same,pest or weed control at 16 g/ha,"[10]; Preemergence, 16 g ai/ha",45%
same,pest or weed control at 31 g/ha,"[11]; 31 g ai/ha, preemergence",35%
same,pest or weed control at 62 g/ha,"[11]; 62 g ai/ha, preemergence",50%
same,pest or weed control at 125 g/ha,"[11]; 125 g ai/ha, preemergence",90%
same,pest or weed control at 16 g/ha,"[11]; Preemergence, 16 g ai/ha",0%
same,pest or weed control at 31 g/ha,"[12]; 31 g ai/ha, preemergence",100%
same,pest or weed control at 62 g/ha,"[12]; 62 g ai/ha, preemergence",100%
same,pest or weed control at 125 g/ha,"[12]; 125 g ai/ha, preemergence",100%
same,pest or weed control at 16 g/ha,"[12]; Preemergence, 16 g ai/ha",100%
same,"Plant response rating, Foxtail, Giant",[13]; 16 g ai/ha,5
same,"Plant response rating, Foxtail, Giant",[13]; 31 g ai/ha,70
same,"Plant response rating, Foxtail, Giant",[13]; 62 g ai/ha,100
same,"Plant response rating, Foxtail, Giant",[13]; 125 g ai/ha,100

# Source: US20170190671A1, “BIS(ARYL)CATECHOL DERIVATIVES AS HERBICIDES” (E I DU PONT DE NEMOURS AND COMPANY, priority 2014, published 2017)
